Literature values in publication PMC9851200, “Multiparameter phenotypic screening for endogenous TFEB and TFE3 translocation identifies novel chemical series modulating lysosome function” (Autophagy, 2022).

Experiments:
Set-up in all cases: method as in original PKIS2 published data
[1] = target: kinases (KINOMEscan panel) (Homo sapiens, UniProt Q9P286); settings: kinase PAK5; Published KINOMEscan; ref original PKIS2 published data; cited from earlier work
[2] = target: T1, kinases (KINOMEscan panel) (Homo sapiens, UniProt Q12851); settings: kinase MAP4K2; Published KINOMEscan; ref original PKIS2 published data; cited from earlier work
T1 sequence (Q12851 1-820): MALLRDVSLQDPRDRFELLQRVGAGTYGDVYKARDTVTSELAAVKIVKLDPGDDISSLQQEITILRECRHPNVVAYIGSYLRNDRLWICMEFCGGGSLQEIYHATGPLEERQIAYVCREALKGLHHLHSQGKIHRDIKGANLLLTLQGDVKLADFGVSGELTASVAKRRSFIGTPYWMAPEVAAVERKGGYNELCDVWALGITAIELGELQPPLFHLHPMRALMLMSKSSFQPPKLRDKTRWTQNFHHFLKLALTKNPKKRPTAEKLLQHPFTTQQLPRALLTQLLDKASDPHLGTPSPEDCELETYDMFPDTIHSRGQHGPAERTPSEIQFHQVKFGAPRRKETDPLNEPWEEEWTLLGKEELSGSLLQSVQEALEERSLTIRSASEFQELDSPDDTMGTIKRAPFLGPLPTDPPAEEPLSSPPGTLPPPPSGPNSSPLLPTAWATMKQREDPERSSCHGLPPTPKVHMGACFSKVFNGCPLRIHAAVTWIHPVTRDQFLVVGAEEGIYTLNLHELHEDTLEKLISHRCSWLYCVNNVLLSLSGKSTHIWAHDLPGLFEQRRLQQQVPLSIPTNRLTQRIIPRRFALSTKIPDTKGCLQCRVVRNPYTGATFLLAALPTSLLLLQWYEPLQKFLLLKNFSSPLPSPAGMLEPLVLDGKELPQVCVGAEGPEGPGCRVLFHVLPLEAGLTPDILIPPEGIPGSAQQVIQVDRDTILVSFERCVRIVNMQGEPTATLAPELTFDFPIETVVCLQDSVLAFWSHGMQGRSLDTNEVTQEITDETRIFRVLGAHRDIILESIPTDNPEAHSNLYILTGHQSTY

[3] = target: kinases (KINOMEscan panel) (Homo sapiens, UniProt Q8TDR2); settings: STK35; Published KINOMEscan; ref original PKIS2 published data; cited from earlier work
kinases (KINOMEscan panel) (Homo sapiens, UniProt Q8TDR2), sequence (Q8TDR2 whole entry): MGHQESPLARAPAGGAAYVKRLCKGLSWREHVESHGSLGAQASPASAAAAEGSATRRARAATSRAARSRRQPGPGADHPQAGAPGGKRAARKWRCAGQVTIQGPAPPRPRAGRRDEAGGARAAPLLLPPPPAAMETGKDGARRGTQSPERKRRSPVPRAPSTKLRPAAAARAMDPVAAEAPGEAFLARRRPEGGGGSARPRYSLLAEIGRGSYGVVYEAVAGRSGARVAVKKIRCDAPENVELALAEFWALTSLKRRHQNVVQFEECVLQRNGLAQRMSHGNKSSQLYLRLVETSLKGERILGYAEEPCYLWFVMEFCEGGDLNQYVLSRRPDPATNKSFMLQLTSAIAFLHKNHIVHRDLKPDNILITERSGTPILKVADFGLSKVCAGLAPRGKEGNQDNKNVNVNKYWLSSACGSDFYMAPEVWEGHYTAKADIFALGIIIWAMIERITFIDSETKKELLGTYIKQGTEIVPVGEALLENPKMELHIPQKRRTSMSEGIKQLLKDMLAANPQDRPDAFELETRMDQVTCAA

[4] = target: T2, kinases (KINOMEscan panel) (Homo sapiens, UniProt Q6ZWH5); settings: Published KINOMEscan; ref original PKIS2 published data; cited from earlier work
T2 sequence (Q6ZWH5 1-1172): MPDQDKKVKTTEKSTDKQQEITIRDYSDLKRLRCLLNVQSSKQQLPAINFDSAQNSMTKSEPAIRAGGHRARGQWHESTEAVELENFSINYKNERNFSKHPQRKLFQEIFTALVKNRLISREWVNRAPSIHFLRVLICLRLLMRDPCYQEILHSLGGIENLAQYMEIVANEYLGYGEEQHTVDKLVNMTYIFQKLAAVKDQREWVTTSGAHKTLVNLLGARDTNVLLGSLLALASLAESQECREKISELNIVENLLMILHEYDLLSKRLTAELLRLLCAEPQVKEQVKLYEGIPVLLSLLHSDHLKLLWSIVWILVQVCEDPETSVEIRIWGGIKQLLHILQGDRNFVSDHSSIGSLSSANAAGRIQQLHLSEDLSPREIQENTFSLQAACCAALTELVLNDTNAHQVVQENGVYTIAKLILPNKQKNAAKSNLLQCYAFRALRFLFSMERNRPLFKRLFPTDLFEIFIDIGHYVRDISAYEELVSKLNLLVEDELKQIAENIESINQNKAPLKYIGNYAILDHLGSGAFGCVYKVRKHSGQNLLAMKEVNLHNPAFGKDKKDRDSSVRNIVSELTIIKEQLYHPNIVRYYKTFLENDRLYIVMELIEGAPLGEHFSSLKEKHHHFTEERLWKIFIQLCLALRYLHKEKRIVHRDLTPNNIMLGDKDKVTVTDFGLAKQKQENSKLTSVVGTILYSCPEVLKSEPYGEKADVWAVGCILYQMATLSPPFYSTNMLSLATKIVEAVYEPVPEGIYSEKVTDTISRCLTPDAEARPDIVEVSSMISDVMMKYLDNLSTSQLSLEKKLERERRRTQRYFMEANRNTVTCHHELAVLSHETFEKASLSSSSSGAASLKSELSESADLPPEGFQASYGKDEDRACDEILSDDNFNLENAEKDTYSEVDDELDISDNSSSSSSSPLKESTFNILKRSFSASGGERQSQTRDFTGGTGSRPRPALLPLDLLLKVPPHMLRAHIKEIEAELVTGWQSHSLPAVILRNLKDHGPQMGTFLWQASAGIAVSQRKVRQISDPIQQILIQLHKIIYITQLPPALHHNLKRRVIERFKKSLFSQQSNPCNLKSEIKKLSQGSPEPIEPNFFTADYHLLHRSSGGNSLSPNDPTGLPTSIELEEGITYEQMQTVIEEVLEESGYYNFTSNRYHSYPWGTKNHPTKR

[5] = target: T3, kinases (KINOMEscan panel) (Homo sapiens, UniProt P43403); settings: Published KINOMEscan; ref original PKIS2 published data; cited from earlier work
T3 sequence (P43403 1-619): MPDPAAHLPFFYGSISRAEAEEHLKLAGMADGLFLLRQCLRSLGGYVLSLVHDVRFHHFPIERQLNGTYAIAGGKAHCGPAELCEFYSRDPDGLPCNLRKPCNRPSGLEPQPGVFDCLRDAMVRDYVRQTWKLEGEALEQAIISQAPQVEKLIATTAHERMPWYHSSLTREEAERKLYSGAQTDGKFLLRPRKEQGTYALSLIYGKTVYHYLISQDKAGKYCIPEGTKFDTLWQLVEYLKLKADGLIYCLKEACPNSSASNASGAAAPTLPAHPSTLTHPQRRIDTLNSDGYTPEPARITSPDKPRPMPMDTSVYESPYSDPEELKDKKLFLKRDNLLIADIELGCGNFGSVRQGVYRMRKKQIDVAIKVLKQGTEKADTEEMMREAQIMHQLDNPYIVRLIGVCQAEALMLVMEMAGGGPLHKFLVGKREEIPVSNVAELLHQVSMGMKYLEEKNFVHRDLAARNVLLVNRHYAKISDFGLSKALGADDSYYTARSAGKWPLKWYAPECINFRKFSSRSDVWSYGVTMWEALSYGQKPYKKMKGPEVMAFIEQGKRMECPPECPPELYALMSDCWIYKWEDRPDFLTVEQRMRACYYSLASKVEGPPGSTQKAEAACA

kinases (KINOMEscan panel) (Homo sapiens, UniProt Q9P286), sequence (Q9P286 whole entry): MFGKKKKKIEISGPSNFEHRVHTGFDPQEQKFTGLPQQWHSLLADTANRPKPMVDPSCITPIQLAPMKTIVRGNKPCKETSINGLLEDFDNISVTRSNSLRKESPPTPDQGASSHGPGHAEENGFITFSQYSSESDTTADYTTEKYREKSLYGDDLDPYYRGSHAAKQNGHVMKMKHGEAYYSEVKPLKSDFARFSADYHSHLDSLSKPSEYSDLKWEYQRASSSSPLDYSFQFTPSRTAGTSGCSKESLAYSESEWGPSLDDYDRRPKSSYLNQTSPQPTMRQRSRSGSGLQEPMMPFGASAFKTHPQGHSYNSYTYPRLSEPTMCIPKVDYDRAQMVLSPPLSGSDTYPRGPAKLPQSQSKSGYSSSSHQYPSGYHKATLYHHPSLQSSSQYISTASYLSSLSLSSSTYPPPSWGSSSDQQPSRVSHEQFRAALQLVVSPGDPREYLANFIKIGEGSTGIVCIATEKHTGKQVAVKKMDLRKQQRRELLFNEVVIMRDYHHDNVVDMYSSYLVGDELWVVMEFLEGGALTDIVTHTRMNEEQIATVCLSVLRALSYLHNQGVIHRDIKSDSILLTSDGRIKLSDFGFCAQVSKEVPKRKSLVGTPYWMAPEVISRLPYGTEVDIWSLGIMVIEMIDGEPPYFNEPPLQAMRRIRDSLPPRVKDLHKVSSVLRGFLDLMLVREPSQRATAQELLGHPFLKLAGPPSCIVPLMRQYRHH

Cc1cccc(-c2nc(Nc3ccncc3)c3ccccc3n2)n1 [NK215]
0: KINOMEscan PAK5 [1] | KINOMEscan MAP4K2 [2] | KINOMEscan STK35 [3] | KINOMEscan NEK10 [4] | KINOMEscan ZAP70 [5]
